Results from PubChem BioAssay AID248 (DTP/NCI, 2004).
Inconclusive results and toxic doses are left out.

Tested on: L1210 leukemia ip in BDF1 mice, survival T/C
Experiment: NCI In Vivo Anticancer Drug Screen. Data for tumor model L1210 Leukemia (intraperitoneal) in B6D2F1 (BDF1) mice
Conditions: endpoint: mean survival time, higher = longer survival
Procedure, shortened: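 Transplantable tumor model; survival measured in treated vs vehicle control mice. Value = treated/control.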

[1] = dose: 100.0 mg/kg/injection, schedule: Q04DX002 (ip), vehicle: Klucel (hydroxypropylcellulose) (HPC)
[2] = dose: 200.0 mg/kg/injection, schedule: Q04DX002 (ip), vehicle: Klucel (hydroxypropylcellulose) (HPC)
[3] = dose: 400.0 mg/kg/injection, schedule: Q04DX002 (ip), vehicle: Klucel (hydroxypropylcellulose) (HPC)
[4] = dose: 100.0 mg/kg/injection, schedule: Q01DX001 (ip), vehicle: saline
[5] = dose: 200.0 mg/kg/injection, schedule: Q01DX001 (ip), vehicle: saline
[6] = dose: 400.0 mg/kg/injection, schedule: Q01DX001 (ip), vehicle: saline
[7] = dose: 50.0 mg/kg/injection, schedule: Q04DX003 (ip), vehicle: Klucel (hydroxypropylcellulose) (HPC)
[8] = dose: 100.0 mg/kg/injection, schedule: Q04DX003 (ip), vehicle: Klucel (hydroxypropylcellulose) (HPC)
[9] = dose: 200.0 mg/kg/injection, schedule: Q04DX003 (ip), vehicle: Klucel (hydroxypropylcellulose) (HPC)

`CCOC(C)=NC1=C(C#N)CP(c2ccccc2)CC1` (stereo not drawn) was tested, and the T/C (dose: 100.0 mg/kg/injection, schedule: Q04DX002 (ip), vehicle: saline with Tween-80) was 103 % of control, the T/C (dose: 200.0 mg/kg/injection, schedule: Q04DX002 (ip), vehicle: saline with Tween-80) was 95 % of control and the T/C (dose: 400.0 mg/kg/injection, schedule: Q04DX002 (ip), vehicle: saline with Tween-80) was 92 % of control.

`O=S(=O)(Sc1ccc(N(CCCl)CCCl)cc1)c1ccc(N(CCCl)CCCl)cc1` was tested, and the T/C (dose: 50.0 mg/kg/injection, schedule: Q01DX001 (ip), vehicle: carboxymethylcellulose (CMC)) was 109 % of control, the T/C (dose: 100.0 mg/kg/injection, schedule: Q01DX001 (ip), vehicle: carboxymethylcellulose (CMC)) was 100 % of control and the T/C (dose: 200.0 mg/kg/injection, schedule: Q01DX001 (ip), vehicle: carboxymethylcellulose (CMC)) was 117 % of control. The T/C (dose: 400.0 mg/kg/injection, schedule: Q01DX001 (ip), vehicle: carboxymethylcellulose (CMC)) was 109 % of control.

For `CC(=O)Oc1cccc([N+](=O)[O-])c1`, the T/C [1] was 107 % of control, the T/C [2] was 100 % of control and the T/C [3] was 92 % of control.

`Cc1[nH]c2ccc(C(C)(C)c3ccccc3)cc2c1C` was tested, and the T/C [4] was 98 % of control, the T/C [5] was 91 % of control and the T/C [6] was 88 % of control.

In the case of `N#Cc1sc2ccccc2c1O`, the T/C [7] is reported as 106 % of control, the T/C [8] is reported as 97 % of control and the T/C [9] is reported as 95 % of control.

With `COC(=O)CCNc1ccccc1-c1ccccc1` the T/C (dose: 100.0 mg/kg/injection, schedule: Q04DX002 (ip), vehicle: saline) was 95 % of control, the T/C (dose: 200.0 mg/kg/injection, schedule: Q04DX002 (ip), vehicle: saline) was 114 % of control and the T/C (dose: 400.0 mg/kg/injection, schedule: Q04DX002 (ip), vehicle: saline) was 103 % of control.

In the case of `CCCCCCCCCCCCCCS(=O)(=O)CCCl`, the T/C (dose: 100.0 mg/kg/injection, schedule: Q04DX003 (ip), vehicle: carboxymethylcellulose (CMC)) is reported as 98 % of control, the T/C (dose: 200.0 mg/kg/injection, schedule: Q04DX003 (ip), vehicle: carboxymethylcellulose (CMC)) is reported as 94 % of control and the T/C (dose: 400.0 mg/kg/injection, schedule: Q04DX003 (ip), vehicle: carboxymethylcellulose (CMC)) is reported as 94 % of control.

With `Cc1cc(N(CCCl)CCCl)ccc1C=Nc1ccc2c(c1)nc(C)n2C` the T/C [1] was 93 % of control, the T/C [2] was 112 % of control and the T/C [3] was 97 % of control.

In the case of `CCC(C)P(=O)(N1CC1)N1CC1` (stereo not drawn), the T/C (dose: 2.0 mg/kg/injection, schedule: Q01DX015 (ip), vehicle: carboxymethylcellulose (CMC)) is reported as 100 % of control, the T/C (dose: 4.0 mg/kg/injection, schedule: Q01DX015 (ip), vehicle: carboxymethylcellulose (CMC)) is reported as 103 % of control and the T/C (dose: 8.0 mg/kg/injection, schedule: Q01DX015 (ip), vehicle: carboxymethylcellulose (CMC)) is reported as 105 % of control. For the same compound, the T/C (dose: 16.0 mg/kg/injection, schedule: Q01DX015 (ip), vehicle: carboxymethylcellulose (CMC)) was 121 % of control and the T/C (dose: 32.0 mg/kg/injection, schedule: Q01DX015 (ip), vehicle: carboxymethylcellulose (CMC)) was 183 % of control.

For `CC(=O)OCC(OC(C)=O)C(OC(C)=O)C(/C=C/N=[N+]([O-])c1ccccc1)OC(C)=O` (stereo not drawn), the T/C (dose: 50.0 mg/kg/injection, schedule: Q01DX001 (ip), vehicle: saline) was 100 % of control, the T/C [4] was 94 % of control and the T/C [5] was 100 % of control.

For `CCC1(O)CC2c3ccccc3CCN2CC1CC(C)C` (stereo not drawn), the T/C (dose: 12.5 mg/kg/injection, schedule: Q01DX009 (ip), vehicle: Klucel (hydroxypropylcellulose) (HPC)) was 101 % of control, the T/C (dose: 25.0 mg/kg/injection, schedule: Q01DX009 (ip), vehicle: Klucel (hydroxypropylcellulose) (HPC)) was 116 % of control and the T/C (dose: 25.0 mg/kg/injection, schedule: Q04DX003 (ip), vehicle: Klucel (hydroxypropylcellulose) (HPC)) was 110 % of control. For the same compound, the T/C (dose: 50.0 mg/kg/injection, schedule: Q01DX009 (ip), vehicle: Klucel (hydroxypropylcellulose) (HPC)) was 108 % of control, the T/C [7] was 98 % of control and the T/C (dose: 100.0 mg/kg/injection, schedule: Q01DX009 (ip), vehicle: Klucel (hydroxypropylcellulose) (HPC)) was 121 % of control. The T/C [8] was 113 % of control and the T/C [9] was 107 % of control.

In the case of `CC1C2C(=O)C3(C(C)C(=O)O)CCC2(C)C3CC12OCCO2` (stereo not drawn), the T/C (dose: 100.0 mg/kg/injection, schedule: Q01DX001 (ip), vehicle: Klucel (hydroxypropylcellulose) (HPC)) is reported as 95 % of control, the T/C (dose: 200.0 mg/kg/injection, schedule: Q01DX001 (ip), vehicle: Klucel (hydroxypropylcellulose) (HPC)) is reported as 108 % of control and the T/C (dose: 400.0 mg/kg/injection, schedule: Q01DX001 (ip), vehicle: Klucel (hydroxypropylcellulose) (HPC)) is reported as 97 % of control.

With `COC1CC(OS(=O)(=O)c2ccc(C)cc2)C(OS(=O)(=O)c2ccc(C)cc2)C(C)O1` (stereo not drawn) the T/C [4] was 100 % of control, the T/C [5] was 98 % of control and the T/C [6] was 98 % of control.

For `NC(N)=N/N=C/c1cc(Cl)cc(Cl)c1O`, the T/C (dose: 75.0 mg/kg/injection, schedule: Q01DX001 (ip), vehicle: saline) was 101 % of control.
